The source of these data is patent US7985753B2, “Substituted pyrazolo[1,5-A]pyrimidines as metabotropic glutamate receptor modulators” (MERZ PHARMA GmbH & Co. KGaA, priority 2006, dated 2011).

The target in one assay is T1, mGluR5 receptors (Rattus norvegicus, UniProt P31424).
T1 construct: endogenous in cells; host or cells: primary astrocytes from neocortex of Sprague-Dawley rat pups
The experiment in a line: Cytosolic calcium studies with astrocytes (astrocyte culture test, FLIPR). The note with it: rat primary astrocytes; L-quisqualate (100 nM); read-out: mGluR5_FLIPRr_rpA IC50. The class given is cell-based. The protocol: Primary astrocyte cultures are prepared from cortices of newborn rats as described by Booher and Sensenbrenner (1972, Neurobiology 2(3):97-105). Briefly, Sprague-Dawley rat pups (2-4 d old) are decapitated and neocortices are dissected, disintegrated with a nylon filter (pore size 80 μm) and carefully triturated. The cell suspension is plated on poly-D-lysine pre-coated flasks (Costar, Netherlands) and cultivated in Dulbecco's Modified Eagle's Medium (DMEM, Invitrogen, Germany) supplemented with 10% foetal calf serum (FCS, Sigma, Germany), 4 mM glutamine and 50 μg/ml gentamycin (both Biochrom, Germany) at 37° C. in a humidified atmosphere of 5% CO2/95% air for 7 d with exchanging the medium at day 2 and 6.
After 7 days in vitro (DIV), cells are shaken overnight at 250 rpm to remove oligodendrocytes and microglia. The next day, astrocytes are rinsed twice with CMF-PBS (calcium- and magnesium-free phosphate buffered saline, Biochrom, Germany), trypsinized and subplated on poly-D-lysine pre-coated 96-well plates (Greiner, Germany) at a density of 40,000 cells/well. 24 h after establishing the secondary culture the astrocytes are rinsed with PBS^++ (phosphate buffered saline, Biochrom, Germany), and fed with astrocyte-defined medium (ADM) consisting of DMEM containing 1×G^5-supplement (Invitrogen, Germany), 0.5 μg/ml heparan sulfate, and 1.5 μg/ml fibronectin (both Sigma, Germany) (Miller et al., (1993) Brain Res. 618(1):175-8). 3 d later the medium is exchanged and the cells incubated for another 2-3 d, so that at the time of experiments astrocytes are 14-15 DIV.
The increase of cytosolic calcium after stimulation with the mGluR5 agonist L-quisqualate is measured using a fluorometric imaging plate reader (FLIPR) and the Ca-Kit (both Molecular Devices). Prior to addition of agonist or antagonist the medium is aspirated and cells are loaded for 2 h at RT with 150 μl of loading buffer consisting of Ca-sensitive dye reconstituted in sodium chloride (123 mM), potassium chloride (5.4 mM), magnesium chloride (0.8 mM), calcium chloride (1.8 mM), D-glucose (15 mM), and HEPES (20 mM), pH 7.3. Subsequently, plates are transferred to FLIPR to detect calcium increase with the addition of L-quisqualate (100 nM) measured as relative fluorescence units (RFU). If antagonists are tested, these compounds are pre-incubated for 10 minutes at RT before addition of the respective agonist.
The fluorescence signal increase after addition of agonist reflects the increase of cytosolic calcium. Inconsistencies in the amount of cells per well are normalised by using the spatial uniformity correction of the FLIPR software. The mean of replicated temporal data (n=3-5) is calculated and used for graphical representation. For the evaluation of the pharmacology, the calcium changes in response to different concentrations of agonist or antagonist are determined using a maximum minus minimum (MaxMin) calculation.
All responses (RFU-values) are determined as percentage of control (=maximum response). EC50 and IC50 are calculated according the logistic equation using GraFit 5.0 (Erithacus Software, GB) or Prism 4.0 (GraphPad Software, USA).

Assay [1] has as its target T2, transmembrane allosteric modulatory sites of mGluR5 receptors in cortical membranes (Rattus norvegicus, UniProt P31424).
T2 construct: from tissue; host or cells: rat brain cortex membranes
The experiment in a line: [^3H]-MPEP binding assay in rat cortical membranes. Particulars: read-out: mGluR5_M_MPEP_r_CTX_IC50. As to the method:
Male Sprague-Dawley rats (200-250 g) are decapitated and their brains are removed rapidly. The cortex is dissected and homogenized in 20 volumes of ice-cold 0.32 M sucrose using a glass-Teflon homogenizer. The homogenate is centrifuged at 1000×g for 10 minutes. The pellet is discarded and the supernatant centrifuged at 20,000×g for 20 minutes. The resulting pellet is re-suspended in 20 volumes of distilled water and centrifuged for 20 minutes at 8000×g. Then the supernatant and the buffy coat are centrifuged at 48,000×g for 20 minutes in the presence of 50 mM Tris-HCl, pH 8.0. The pellet is then re-suspended and centrifuged two to three more times at 48,000×g for 20 minutes in the presence of 50 mM Tris-HCl, pH 8.0. All centrifugation steps are carried out at 4° C. After resuspension in 5 volumes of 50 mM Tris-HCl, pH 8.0 the membrane suspension is frozen rapidly at −80° C.
On the day of assay the membranes are thawed and washed four times by resuspension in 50 mM Tris-HCl, pH 8.0 and centrifugation at 48,000×g for 20 minutes and finally re-suspended in 50 mM Tris-HCl, pH 7.4. The amount of protein in the final membrane preparation (500-700 μg/ml) is determined according to the method of Lowry (Lowry O. H. et al. 1951. J. Biol. Chem. 193, 256-275).
Alternatively, assays are performed with [^3H]-MMPEP (2-(3-methoxyphenylethynyl)-6-methylpyridine hydrochloride) as radioligand. The incubations are continued at room temperature for 60 minutes (equilibrium is achieved under the conditions used). […] Incubations are terminated using a Millipore filter system. The samples are rinsed twice with 4 ml of ice-cold assay buffer over glass fibre filters (Schleicher & Schuell, Germany) under a constant vacuum. Following separation and rinse, the filters are placed into scintillation liquid (5 ml Ultima Gold, Perkin Elmer, Germany) and radioactivity retained on the filters is determined with a conventional liquid scintillation counter (Canberra Packard, Germany).

Assay [2] concerns the target metabotropic glutamate receptor (mGluR5) (Homo sapiens, UniProt P41594). The experiment in a line: Activity as mGluR5 modulator, test not specified.

T1 sequence (P31424 21-1203): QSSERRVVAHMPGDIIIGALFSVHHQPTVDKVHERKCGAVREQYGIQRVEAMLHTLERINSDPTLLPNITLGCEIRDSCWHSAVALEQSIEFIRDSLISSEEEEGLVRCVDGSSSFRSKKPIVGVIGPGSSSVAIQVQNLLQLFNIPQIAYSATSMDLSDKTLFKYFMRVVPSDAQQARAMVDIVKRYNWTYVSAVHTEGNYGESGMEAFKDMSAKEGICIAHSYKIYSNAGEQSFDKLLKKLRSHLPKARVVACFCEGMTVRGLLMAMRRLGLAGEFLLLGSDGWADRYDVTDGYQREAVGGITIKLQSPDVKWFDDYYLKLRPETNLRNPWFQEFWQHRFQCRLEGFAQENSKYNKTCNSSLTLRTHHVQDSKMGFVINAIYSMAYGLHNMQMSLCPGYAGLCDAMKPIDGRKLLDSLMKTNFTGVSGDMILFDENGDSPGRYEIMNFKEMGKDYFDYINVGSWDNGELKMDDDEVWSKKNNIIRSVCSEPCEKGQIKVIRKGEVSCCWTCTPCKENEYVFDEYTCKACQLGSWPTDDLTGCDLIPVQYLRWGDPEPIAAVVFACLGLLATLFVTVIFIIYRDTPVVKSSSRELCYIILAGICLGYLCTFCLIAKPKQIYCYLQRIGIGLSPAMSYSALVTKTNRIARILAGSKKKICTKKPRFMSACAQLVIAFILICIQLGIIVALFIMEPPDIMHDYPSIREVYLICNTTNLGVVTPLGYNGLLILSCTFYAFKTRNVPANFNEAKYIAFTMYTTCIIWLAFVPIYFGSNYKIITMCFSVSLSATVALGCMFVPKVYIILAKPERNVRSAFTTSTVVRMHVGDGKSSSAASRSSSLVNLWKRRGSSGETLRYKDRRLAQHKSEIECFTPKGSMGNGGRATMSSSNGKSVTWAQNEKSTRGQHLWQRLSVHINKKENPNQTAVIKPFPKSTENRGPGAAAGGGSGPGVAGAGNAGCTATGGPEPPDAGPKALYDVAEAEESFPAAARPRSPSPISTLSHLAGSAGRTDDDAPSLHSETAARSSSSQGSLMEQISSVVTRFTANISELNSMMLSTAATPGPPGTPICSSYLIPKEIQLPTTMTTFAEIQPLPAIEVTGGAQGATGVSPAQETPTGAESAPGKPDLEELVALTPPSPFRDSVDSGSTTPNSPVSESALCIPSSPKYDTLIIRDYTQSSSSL
T2 sequence (P31424 21-1203): as above
Sequence of metabotropic glutamate receptor (mGluR5) (P41594 21-1212): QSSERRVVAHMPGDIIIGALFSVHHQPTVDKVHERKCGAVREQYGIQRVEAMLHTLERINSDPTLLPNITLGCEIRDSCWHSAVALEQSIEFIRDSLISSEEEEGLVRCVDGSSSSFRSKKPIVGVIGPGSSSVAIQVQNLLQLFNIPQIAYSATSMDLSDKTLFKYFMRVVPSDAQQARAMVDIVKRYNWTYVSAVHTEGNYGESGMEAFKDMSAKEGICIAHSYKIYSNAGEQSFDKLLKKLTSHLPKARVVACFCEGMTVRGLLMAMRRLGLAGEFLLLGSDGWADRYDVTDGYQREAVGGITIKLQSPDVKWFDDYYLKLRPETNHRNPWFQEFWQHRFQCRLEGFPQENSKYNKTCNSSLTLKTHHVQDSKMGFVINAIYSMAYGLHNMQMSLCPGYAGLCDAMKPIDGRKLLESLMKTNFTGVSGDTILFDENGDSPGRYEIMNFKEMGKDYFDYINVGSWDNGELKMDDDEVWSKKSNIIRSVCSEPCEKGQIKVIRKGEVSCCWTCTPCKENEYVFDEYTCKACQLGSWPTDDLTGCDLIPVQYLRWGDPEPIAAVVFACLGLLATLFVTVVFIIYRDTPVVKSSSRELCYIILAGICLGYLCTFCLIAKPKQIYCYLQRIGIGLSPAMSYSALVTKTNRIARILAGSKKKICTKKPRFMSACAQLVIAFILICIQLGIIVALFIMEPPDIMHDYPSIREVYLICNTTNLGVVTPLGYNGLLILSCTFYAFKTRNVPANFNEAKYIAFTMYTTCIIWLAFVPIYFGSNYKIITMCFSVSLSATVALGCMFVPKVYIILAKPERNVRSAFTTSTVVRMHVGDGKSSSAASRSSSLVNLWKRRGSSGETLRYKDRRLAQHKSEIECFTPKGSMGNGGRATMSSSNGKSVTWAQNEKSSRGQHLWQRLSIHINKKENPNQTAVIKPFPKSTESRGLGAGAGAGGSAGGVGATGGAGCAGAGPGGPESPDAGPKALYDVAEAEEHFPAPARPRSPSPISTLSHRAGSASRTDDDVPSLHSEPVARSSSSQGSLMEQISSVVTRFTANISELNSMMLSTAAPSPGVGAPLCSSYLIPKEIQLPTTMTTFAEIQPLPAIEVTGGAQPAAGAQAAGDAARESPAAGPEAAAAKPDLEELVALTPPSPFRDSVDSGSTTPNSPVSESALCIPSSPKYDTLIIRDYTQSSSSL

On to `CC1c2ccc(F)cc2CCN1C(=O)c1cc2ncc(Cl)cn2n1` (stereo not shown) [drawing 446, (6-Chloro-pyrazolo[1,5-a]pyrimidin-2-yl)-(6-fluoro-1-methyl-3,4-dihydro-1H-isoquinolin-2-yl)-methanone], for which, at mGluR5 receptors, the IC50 was found to be 47 nM. As for `CC1c2cccc(F)c2CCN1C(=O)c1cc2ncc(Br)cn2n1` (stereo not shown) [drawing 455, (6-Bromo-pyrazolo[1,5-a]pyrimidin-2-yl)-(5-fluoro-1-methyl-3,4-dihydro-1H-isoquinolin-2-yl)-methanone], the IC50 in assay [1] is 10 nM.

Regarding `CC1c2cc(F)ccc2CCN1C(=O)c1cc2ncc(Br)cn2n1` (stereo not shown) [drawing 444, (6-Bromo-pyrazolo[1,5-a]pyrimidin-2-yl)-(7-fluoro-1-methyl-3,4-dihydro-1H-isoquinolin-2-yl)-methanone], the IC50 on mGluR5 receptors was found to be 46 nM. Still for that read-out and setting: the same measure for `CC1c2cccc(F)c2CCN1C(=O)c1cc2ncc(Br)cn2n1` (stereo not shown) [drawing 445, (6-Bromo-pyrazolo[1,5-a]pyrimidin-2-yl)-(5-fluoro-1-methyl-3,4-dihydro-1H-isoquinolin-2-yl)-methanone]: 17 nM; for `CC1c2cccc(Br)c2CCN1C(=O)c1cc2ncc(Cl)cn2n1` (stereo not shown) [drawing 451, (5-Bromo-1-methyl-3,4-dihydro-1H-isoquinolin-2-yl)-(6-chloro-pyrazolo[1,5-a]pyrimidin-2-yl)-methanone]: 65 nM; for `CC1CN(C(=O)c2cc3ncc(Br)cn3n2)C(C)c2ccccc21` (stereo not shown) [drawing 448, (6-Bromo-pyrazolo[1,5-a]pyrimidin-2-yl)-(1,4-dimethyl-3,4-dihydro-1H-isoquinolin-2-yl)-methanone]: 83 nM.

`COc1cc2c(cc1O)CCN(C(=O)c1cc3ncc(Br)cn3n1)C2C` (stereo not shown) [drawing 443, 2-[(6-bromopyrazolo[1,5-a]pyrimidin-2-yl)carbonyl]-7-methoxy-1-methyl-1,2,3,4-tetrahydro-6-isoquinolinol]: at mGluR5 receptors, the IC50 was determined as 43 nM. In the case of `COc1ccc2c(c1)CCN(C(=O)c1cc3ncc(Cl)cn3n1)C2C` (stereo not shown) [drawing 460, (6-Chloro-pyrazolo[1,5-a]pyrimidin-2-yl)-(6-methoxy-1-methyl-3,4-dihydro-1H-isoquinolin-2-yl)-methanone], in assay [1], the IC50 worked out at 27 nM. With `CC1CN(C(=O)c2cc3ncc(Cl)cn3n2)C(C)c2ccccc21` (stereo not shown) [drawing 457, (6-Chloro-pyrazolo[1,5-a]pyrimidin-2-yl)-(1,4-dimethyl-3,4-dihydro-1H-isoquinolin-2-yl)-methanone], the IC50 in assay [1] worked out at 118 nM. On the same count and under the same terms, the same measure for `COc1ccc2c(c1)CCN(C(=O)c1cc3ncc(Br)cn3n1)C2C` (stereo not shown) [drawing 459, (6-Bromo-pyrazolo[1,5-a]pyrimidin-2-yl)-(6-methoxy-1-methyl-3,4-dihydro-1H-isoquinolin-2-yl)-methanone]: 20 nM. `O=C(c1cc2ncc(Br)cn2n1)N1CCOCC1` [Example B310, (6-Bromopyrazolo[1,5-a]pyrimidin-2-yl)-morpholin-4-yl-methanone]: the “activity as metabotropic glutamate receptor (mGluR5) modulator” value in assay [2] is on record as “no particular activity”. Regarding `COc1ccc2c(c1)CCN(C(=O)c1cc3ncc(Cl)cn3n1)C2C` (stereo not shown) [drawing 450, (6-Chloro-pyrazolo[1,5-a]pyrimidin-2-yl)-(6-methoxy-1-methyl-3,4-dihydro-1H-isoquinolin-2-yl)-methanone], the IC50 at mGluR5 receptors was determined as 69 nM. On to `CC1CN(C(=O)c2cc3ncc(Br)cn3n2)C(C)c2ccccc21` (stereo not shown) [drawing 458, (6-Bromo-pyrazolo[1,5-a]pyrimidin-2-yl)-(1,4-dimethyl-3,4-dihydro-1H-isoquinolin-2-yl)-methanone], for which the IC50 in assay [1] came out at 91 nM.

On to `CC1c2ccc(F)cc2CCN1C(=O)c1cc2ncc(Cl)cn2n1` (stereo not shown) [drawing 456, (6-Chloro-pyrazolo[1,5-a]pyrimidin-2-yl)-(6-fluoro-1-methyl-3,4-dihydro-1H-isoquinolin-2-yl)-methanone], for which, in assay [1], the IC50 is 40 nM. Same read-out and setting: under `CC1c2cc(F)ccc2CCN1C(=O)c1cc2ncc(Br)cn2n1` (stereo not shown) [drawing 454, (6-Bromo-pyrazolo[1,5-a]pyrimidin-2-yl)-(7-fluoro-1-methyl-3,4-dihydro-1H-isoquinolin-2-yl)-methanone] stands 30 nM; under `CC1c2cccc(Br)c2CCN1C(=O)c1cc2ncc(Cl)cn2n1` (stereo not shown) [drawing 461, (5-Bromo-1-methyl-3,4-dihydro-1H-isoquinolin-2-yl)-(6-chloro-pyrazolo[1,5-a]pyrimidin-2-yl)-methanone], 21 nM. Consider `CC1CN(C(=O)c2cc3ncc(Cl)cn3n2)C(C)c2ccccc21` (stereo not shown) [drawing 447, (6-Chloro-pyrazolo[1,5-a]pyrimidin-2-yl)-(1,4-dimethyl-3,4-dihydro-1H-isoquinolin-2-yl)-methanone], for which the IC50 at mGluR5 receptors was 64 nM. Consider `COc1cc2c(cc1O)CCN(C(=O)c1cc3ncc(Br)cn3n1)C2C` (stereo not shown) [drawing 453, 2-[(6-bromopyrazolo[1,5-a]pyrimidin-2-yl)carbonyl]-7-methoxy-1-methyl-1,2,3,4-tetrahydro-6-isoquinolinol], for which, in assay [1], the IC50 is 60 nM. For `O=C(c1cc2ncc(Cl)cn2n1)N1CCc2ncc(Br)cc2C1` [drawing 452, (3-Bromo-7,8-dihydro-5H-[1,6]naphthyridin-6-yl)-(6-chloro-pyrazolo[1,5-a]pyrimiddin-2-yl)-methanone], the IC50 on mGluR5 receptors was determined as 48 nM. Take `O=C(c1cc2ncc(Br)cn2n1)N1CCCCC1` [Example B308, (6-Bromopyrazolo[1,5-a]pyrimidin-2-yl)-piperidin-1-yl-methanone]: in assay [2], the “activity as metabotropic glutamate receptor (mGluR5) modulator” value is reported as “no particular activity”. With `O=C(c1cc2ncc(Cl)cn2n1)N1CCc2ncc(Br)cc2C1` [drawing 462, (3-Bromo-7,8-dihydro-5H-[1,6]naphthyridin-6-yl)-(6-chloro-pyrazolo[1,5-a]pyrimidin-2-yl)-methanone], the IC50 in assay [1] turned out to be 107 nM. Regarding `COc1ccc2c(c1)CCN(C(=O)c1cc3ncc(Br)cn3n1)C2C` (stereo not shown) [drawing 449, (6-Bromo-pyrazolo[1,5-a]pyrimidin-2-yl)-(6-methoxy-1-methyl-3,4-dihydro-1H-isoquinolin-2-yl)-methanone], the IC50 at mGluR5 receptors amounted to 62 nM.
